Patent US8563586B2, “1,(3,)5-substituted imidazoles, their use in the treatment of hypertension and methods for their preparation” (Eldrug S.A., priority 2007, dated 2013)
Entries after “also recorded” stand apart in the source; their conditions may differ.

Legend:
[1] = target: T1, human AT1 (Homo sapiens, UniProt P30556); assay: In vitro binding, membranes containing AT1 receptor, radioligand [125I]Sar1,Ile8-Angiotensin II
T1 construct: purchased PerkinElmer Life Sciences, Inc., Boston, Mass., USA
T1 sequence (P30556 1-359): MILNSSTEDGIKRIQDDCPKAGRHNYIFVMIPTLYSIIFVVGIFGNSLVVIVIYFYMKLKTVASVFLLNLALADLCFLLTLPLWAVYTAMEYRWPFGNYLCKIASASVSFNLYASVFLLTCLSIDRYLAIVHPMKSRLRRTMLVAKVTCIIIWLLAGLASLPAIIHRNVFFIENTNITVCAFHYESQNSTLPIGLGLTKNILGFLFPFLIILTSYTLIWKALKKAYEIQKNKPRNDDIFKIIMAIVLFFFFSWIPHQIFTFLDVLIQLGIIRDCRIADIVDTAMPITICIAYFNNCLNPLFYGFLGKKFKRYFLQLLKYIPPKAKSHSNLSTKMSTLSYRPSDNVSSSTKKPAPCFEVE

[2] = test system: conscious rabbits made hypertensive by angiotensin II infusion; details: 15 mg mixed with vaseline applied on bare skin
Text: Conscious rabbits were made hypertensive by angiotensin II infusion. A mixture of 1 5 mgr of our lipophilic angiotensin II receptor blocker compound 20 (or its dialkylated counterpart) with vaseline was applied on bare skin.

[3] = test system: anesthetized rabbits made hypertensive by AII infusion; assay: In vivo: anesthetized rabbits made hypertensive by AII infusion, IV boluses of compound; design: species or system New Zealand White rabbits; details: for in vivo antihypertensive potency / activity, relative, in words: anesthetized rabbits, angiotensin II-induced hypertension; for AII antagonistic effect: doses of 2 and 3.5 mol, cumulative IV boluses, potency order 22, 20, 15, 18, 23, 21, 30, 29
Description: The applicant has also established an in vivo assay using anesthetized rabbits in [Onassis 30 Cardiac Institute] which allows us to estimate relative potencies.
The assay is a routine assay and constitutes a convenient method to measure activities of AII antagonists.
In vivo experiments: Adult normotensive male New Zealand White rabbits weighing between 2.5 and 3.3 kg were used in the study following previously described methods.^46,47 In brief, animals were anesthetized by pentobarbitone (30 mg/kg), intubated and mechanically ventilated with 100% oxygen using a respirator for small animals (MD Industries, Mobile, Ala., USA). The tidal volume was 15 ml and the rate was adjusted to keep blood gases within normal rage. Two polyethylene catheters were inserted, one in the carotid artery for continuous blood pressure monitoring via a transducer attached to a multichannel recorder (Nihon-Kohden, Model 6000, Japan) and the other one in the jugular vein for the administrations of solution made by diluting Angiotensin II (AII) (Hypertensin, CIBA) in 5% dextrose at final concentration of 5 µg/ml. Based on previous testing with this rabbit preparation submaximal angiotensin II-dependent hypertension was induced by infusing Angiotensin via a syringe pump (Harvard Apparatus Pump 22, Harvard Apparatus, Natick. Mass., USA) at a constant rate of 0.2 ml/min ([…]). […] Five minutes after the establishment of hypertension, two cumulative IV boluses of each compound (2 and 3.5 mol) were given via an ear vein 20 minutes apart. The blood pressure was monitored for 20 minutes after the second bolus and then angiotensin infusion was halted and blood pressure was recorded for an additional period of 20 minutes until the end of the experiment. Boluses of the same dose of Losartan, as positive control, were used in the same experimental model.
The antihypertensive effect and the degree of potency of these compounds were tested in a preparation of anesthetized rabbits made hypertensive by AII infusion.

[4] = test system: anesthesized rabbits; details: rabbit, in vivo; cited from earlier work
[5] = test system: rat isolated uterus; details: cited from earlier work

Compound	in vivo antihypertensive potency / activity, relative, in words [3]	AII antagonistic effect [3]	further results
CCCCc1cnc(CO)n1Cc1ccc(-c2ccccc2-c2nnn(C(c3ccccc3)(c3ccccc3)c3ccccc3Cl)n2)cc1 [Compound 20, 5-Butyl-2-hydroxymethyl-1-[[2′-[[N-(2-chloro-triphenylmethyl)]tetrazol-5yl]biphenyl-4-yl]methyl]imidazole]	highly potent; also recorded: more potent compared to 18; also recorded: most potent	dose-dependent AII antagonistic effect	affinity for AT1 receptor, in words, relative to Losartan ([1]; in vitro binding studies): lower affinity; blood pressure lowered by [2]: 20 mmHg; duration of blood pressure lowering [2]: two
Cc1cn(C(c2ccccc2)(c2ccccc2)c2ccccc2)cn1 [Compound 15, 3-(Triphenylmethyl)-5-methylimidazole]	–	dose-dependent AII antagonistic effect	–
CCCCc1cncn1Cc1ccc(-c2ccccc2-c2nnnn2Cc2ccccc2)cc1 [Compound 24, 1-[[2′-[(N-benzyl)tetrazol-5-yl]biphenyl-4-yl]methyl]-5-butylimidazole]	–	–	melting point: 69 to 71 °C
c1ccc(Cn2nnnc2-c2ccccc2-c2ccc(Cn3cnc4ccccc43)cc2)cc1 [Compound 28, 1-[[2′-[(N-benzyl)tetrazol-5-yl]biphenyl-4-yl]methyl]benzimidazole]	even less potent	–	melting point: 62 to 64 °C
CCCCc1cnc(CO)n1Cc1ccc(-c2ccccc2-c2nnn[nH]2)cc1 [Compound 22, 5-butyl-2-hydroxymethyl-1-[[2′-(1H-tetrazol-5-yl)biphenyl-4-yl]methyl]imidazole]	highly potent; also recorded: more potent compared to 18; also recorded: slightly superior in activity; also recorded: most potent	dose-dependent AII antagonistic effect	fold lower affinity for the AT1 receptor than that of Losartan ([1]; from IC50 values): ~3 fold; IC50 ([1]; membranes containing AT1 receptors, competition with 0.1 nM [125I]Sar1,Ile8-Angiotensin II, read-out: IC50, affinity for the AT1 receptor): 53.8 ± 6.4 nM
CCCCc1cnc(CO)n1Cc1ccc(-c2ccccc2-c2nnnn2Cc2ccccc2)cc1 [Compound 25, 1-[[2′-[(N-benzyl)tetrazol-5-yl]biphenyl-4-yl]methyl]-5-butyl-2hydroxymethyl imidazole]	more potent compared to 18; also recorded: most potent	–	–
[Sar^1, Lys^3, Glu^5] ANG II	–	–	activity in anesthesized rabbits [4]: agonist activity; activity in the rat uterus assay [5]: agonist activity
Cc1cnc(CO)n1Cc1ccc(-c2ccccc2-c2nnn(C(c3ccccc3)(c3ccccc3)c3ccccc3Cl)n2)cc1 [Compound 21, 5-Methyl-2-hydroxymethyl-1-[[2′-[[N-(2-chloro-triphenylmethyl)]tetrazol-5-yl]biphenyl-4-yl]methyl]imidazole]	less potent; also recorded: least active	dose-dependent AII antagonistic effect	–
OCc1nc2ccccc2n1Cc1ccc(-c2ccccc2-c2nnn[nH]2)cc1 [Compound 30, 2-hydroxymethyl-1-[[2′-(1H-tetrazol-5-yl)biphenyl-4-yl]methyl]benzimidazole]	even less potent; also recorded: least active	dose-dependent AII antagonistic effect	–
Cc1cnc(CO)n1Cc1ccc(-c2ccccc2-c2nnn[nH]2)cc1 [Compound 23, 5-methyl-2-hydroxymethyl-1-[[2′-(1H-tetrazol-5-yl)biphenyl-4-yl]methyl]imidazole]	less potent	dose-dependent AII antagonistic effect	–
OCc1nc2ccccc2n1Cc1ccc(-c2ccccc2-c2nnnn2Cc2ccccc2)cc1 [Compound 29, 1-[[2′-[(N-benzyl)tetrazol-5-yl]biphenyl-4-yl]methyl]-2-hydroxymethyl benzimidazole]	even less potent	dose-dependent AII antagonistic effect	melting point: 62 to 63 °C
CCCCc1cncn1Cc1ccc(-c2ccccc2-c2nnn(C(c3ccccc3)(c3ccccc3)c3ccccc3Cl)n2)cc1 [Compound 18, 5-Butyl-1-[[2′-[[N-(2-chloro-triphenylmethyl)]tetrazol-5-yl]biphenyl-4-yl]methyl]imidazole]	more potent; also recorded: less potent compared to 20 and 25	dose-dependent AII antagonistic effect	–
